Measured values published in patent publication US9914755B2, “Cyclosporin derivatives wherein the MeBmt sidechain has been cyclized” (Allergan, Inc., priority 2015, dated 2018).
In brackets after ≈: the same amount, converted by molar mass.

Experiments:
[1] = target: T1, Human recombinant cyclophilin A (CypA) (Homo sapiens, UniProt P62937); assay: Protease-free PPIase assay, cyclophilin A; type: biochemical; conditions: human recombinant CypA, 10 °C, SUC-AAPF-pNA substrate; read-out: CypA Protease-free PPIase Assay Ki
T1 construct: purchased Sigma C3805
T1 sequence (P62937 whole entry): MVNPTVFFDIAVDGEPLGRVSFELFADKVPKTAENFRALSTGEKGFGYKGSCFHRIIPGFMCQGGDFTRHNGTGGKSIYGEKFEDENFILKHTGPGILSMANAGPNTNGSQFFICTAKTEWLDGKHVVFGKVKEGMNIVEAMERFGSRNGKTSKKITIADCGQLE
Method: (§1) Protease-Free PPIase Assay The protease-free PPIase assay measures the rate of cis to trans conversion of a peptide substrate catalyzed by the enzyme cyclophilin A or D. Addition of a cyclophilin inhibitor (e.g., a test compound) slows the catalyzed rate and a Ki value is obtained. 35 mM HEPES pH 7.8, filtered through a 0.2 μm filter. 50 μM DTT was added prior to use each day and then the buffer was stored on ice. […] Human recombinant 6-His tagged cyclophilin D (CypD), prepared by the University of Edinburgh, was used to generate CypD inhibition data. Succinimide-[…]-nitroanilide (SUC-AAPF-pNA) (from Bachem AG, L-1400), 20 mg/ml prepared in 0.5 M LiCl in trifluoroethanol. All readings were taken with an Agilent 8453 Spectrophotometer which consisted of a cuvette holder, stirrer and chiller to maintain a stirred cuvette temperature of 10.0±0.1° C. The temperature was monitored by the use of temperature probe. […] The inhibitor was diluted in 100% DMSO, and then added to the assay to a maximum final concentration of 0.5% DMSO in the assay. […] The absorbance was measured at 330 nm for 300 s or 500 s for blank runs (NOTE: the substrate was added in one quick injection and the measurements started immediately to minimize mixing errors). A first order rate equation was fitted to the absorbance data, for each concentration of inhibitor, to obtain the rate constant (the first 10 to 15 seconds were excluded, as mixing causes errors in this portion of the curve). The catalytic rate was calculated from the enzymatic rate constant minus the background rate constant. An exponential curve was generated using the catalytic rate constants versus the inhibitor concentration to obtain the Ki value for the inhibitor. The Ki value is indicative of the binding affinity between the test compound and cyclophilin A.

[2] = target: T2, Human recombinant 6-His tagged cyclophilin D (CypD) (Homo sapiens, UniProt P30405); assay: Protease-free PPIase assay, cyclophilin D; type: biochemical; conditions: human recombinant 6-His CypD, 10 °C, SUC-AAPF-pNA substrate; read-out: CypD Protease-free PPIase Assay Ki
T2 construct: 6-His
T2 sequence (P30405 30-207): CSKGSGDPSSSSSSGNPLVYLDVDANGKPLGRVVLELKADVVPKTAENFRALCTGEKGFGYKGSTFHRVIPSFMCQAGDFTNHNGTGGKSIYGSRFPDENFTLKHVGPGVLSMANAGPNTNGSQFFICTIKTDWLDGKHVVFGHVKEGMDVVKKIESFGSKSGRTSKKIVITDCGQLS
Method: as §1

calcineurin = target: T3, calcineurin (Homo sapiens, UniProt P62937+P63098+Q08209); assay: Calcineurin Phosphatase (CaN) Assay; type: biochemical; conditions: in the presence of CypA, 1:1 complex of inhibitor with CypA
T3 construct: purchased Enzo Life Sciences BML-AK804
Source text: Calcineurin Phosphatase (CaN) Assay
The calcineurin phosphatase assay is a means for estimating the immunosuppressive potential of a test compound. Calcineurin is a serine-threonine protein phosphatase that on activation dephosphorylates members of the nuclear factor of activated T cells (NFAT), which are important in T lymphocyte activation.
To investigate the immunosuppressive potential of exemplary compounds of Formula I, which are cyclosporin analogs, their ability to inhibit calcineurin activity was measured in the presence and absence of CypA.
The CaN assay kit used is based on a colorimetric assay for measuring calcineurin phosphatase activity, and it is commercially available (Enzo Life Sciences and Calbiochem). Calmodulin is also required for calcineurin activity, and RII phosphopeptide is used as an efficient peptide substrate for calcineurin. […] The detection of free phosphate released is based on the classic Malachite green assay.
Enzo Life Sciences CaN Assay Kit: BML-AK804
For samples ‘without CypA’, a 4-point dilution series of the inhibitor was prepared in duplicate to obtain a final assay concentration of 10, 1, 0.1 and 0.01 μM. For samples ‘with CypA’, a 7-point dilution series was prepared to obtain a 1:1 complex of the inhibitor with CypA; the inhibitor and CypA final assay concentrations of 10, 3.33, 1.11, 0.37, 0.12, 0.04, 0.014 μM were prepared.
using the half area 96 well plates supplied with the kit, 10 μl UPW was added to duplicate wells to provide the non-inhibited control. 10 μl of the inhibitor or the inhibitor/CypA complex was added to the appropriate sample wells. 25 μl of the 2× assay buffer with calmodulin (CaM) was added to all wells, then 5 μl of calcineurin phosphatase (CaN) was added to all wells (40 U per well final concentration) except duplicate ‘no calcineurin blank’ wells to which 5 μL 1× assay buffer was added. The assay plate was placed in an oven at 30° C. for 15 minutes to equilibrate to the reaction temperature. The reaction was started by the addition of 10 μl RII-peptide (0.15 mM final concentration). The reaction was allowed to proceed at 30° C. for a time period in which the reaction is linear for about 60 minutes. The reaction was then terminated by adding 100 μl of the Malachite Green reagent. The color was allowed to develop for 15-30 minutes at room temperature before the absorbance at 620 nm was measured using a plate reader (Molecular Devices—SpectraMax M5). The data were analyzed by subtracting ‘no calcineurin blank’ from all the absorbance readings and plotting the background corrected absorbances against Log10 inhibitor concentration. A sigmoidal-dose response curve was fitted to the data using GraphPad Prism Software.
It exerts its immunosuppressive activity by binding to CypA to form a complex, which then binds to calcineurin and thereby inhibits calcineurin activity.

physchem = conditions: 25 °C, pH 7.4, aqueous buffer, kinetic from dmso stock
Method: The aqueous solubility of a compound of Formula I in buffer (pH 7.8) was measured by recording the onset of precipitation of the compound as a function of increasing concentration. The onset of precipitation, if it occurred, was detected by an increase in absorbance at 650 nm.
Stock solutions of Control and Test Compounds: 10 mM in 100% DMSO.
10 mM stock solutions of control and test compounds were prepared in 100% DMSO.
Assay buffer (247.5 μl) was placed into a flat bottomed transparent 96-well plate. For blank samples, DMSO (2.5 μl) was added. For test and control samples, 2.5 μl of the appropriate DMSO dilution stocks were added to the appropriate well. All test and control compounds were performed in triplicate.
The plates were sealed with adhesive plate seal and shaken at 250 rpm at 25° C. for 18 h on a plate shaker. After incubation, the plate seals were taken off and any bubbles observed in wells removed. The plates were read on a SpectraMaxM5 with a 5 s pre-shake at 650 nm.
Data files were transferred to the appropriate worksheet and the solubility range of the compounds was calculated from the data.

Row | Molecule | Ki [1] | Ki [2] | IC50 (calcineurin) | solubility at 18 h (physchem)
1 | CC[C@@H]1C(=O)N(C)[C@@H](CC(C)C)C(=O)N[C@H](C(C)C)C(=O)N(C)[C@H](CC(C)C)C(=O)N[C@H](C)C(=O)N[C@@H](C)C(=O)N(C)[C@H](CC(C)C)C(=O)N(C)[C@H](CC(C)C)C(=O)N(C)[C@H](C(C)C)C(=O)N(C)[C@H]([C@@H]2OCC[C@H]2C)C(=O)N[C@H](CC)C(=O)N1C [Compound 1, [(2S)-2-(methylamino)-2-[(2R,3R)-3-methyltetrahydrofuran-2-yl]acetic acid]^1 [(R)-ethyl-Sar]^3 cyclosporin A] | 81 nM | 9.7 nM | > 10000 nM | 75 µM (≈ 90.2 µg/mL)
2 | CCC[C@@H]1C(=O)N(C)[C@@H](CC(C)C)C(=O)N[C@H](C(C)C)C(=O)N(C)[C@H](CC(C)C)C(=O)N[C@H](C)C(=O)N[C@@H](C)C(=O)N(C)[C@H](CC(C)C)C(=O)N(C)[C@H](CC(C)C)C(=O)N(C)[C@H](C(C)C)C(=O)N(C)[C@H]([C@@H]2OCC[C@H]2C)C(=O)N[C@H](CC)C(=O)N1C [Compound 2, [(2S)-2-(methylamino)-2-[(2R,3R)-3-methyltetrahydrofuran-2-yl]acetic acid]^1 [(R)-propyl-Sar]^3 cyclosporin A] | 237 nM | 39 nM | > 10000 nM | 50 µM (≈ 60.8 µg/mL)
3 | CC[C@H]1NC(=O)[C@@H]([C@@H]2OCC[C@H]2C)N(C)C(=O)[C@@H](C(C)C)N(C)C(=O)[C@@H](CC(C)C)N(C)C(=O)[C@@H](CC(C)C)N(C)C(=O)[C@H](C)NC(=O)[C@@H](C)NC(=O)[C@@H](CC(C)C)N(C)C(=O)[C@@H](C(C)C)NC(=O)[C@H](CC(C)C)N(C)C(=O)[C@@H](C)N(C)C1=O [Compound 3, [(2S)-2-(methylamino)-2-[(2R,3R)-3-methyltetrahydrofuran-2-yl]acetic acid]^1 [(R)-methyl-Sar]^3 cyclosporin A] | 95 nM | 4.4 nM | > 10000 nM | > 100 µM
4 | CC[C@H]1NC(=O)[C@@H]([C@@H]2OCC[C@H]2C)N(C)C(=O)[C@@H](C(C)C)N(C)C(=O)[C@@H](CC(C)C)N(C)C(=O)[C@@H](CC(C)C)N(C)C(=O)[C@H](C)NC(=O)[C@@H](C)NC(=O)[C@@H](CC(C)C)N(C)C(=O)[C@@H](C(C)C)NC(=O)[C@H](CC(C)C)N(C)C(=O)[C@@H](C(F)F)N(C)C1=O [Compound 5, [(2S)-2-(methylamino)-2-[(2R,3R)-3-methyltetrahydrofuran-2-yl]acetic acid]^1 [(S)-difluoromethyl-Sar]^3 cyclosporin A] | 198 nM | 14.5 nM | > 10000 nM | 50 µM (≈ 61.2 µg/mL)
5 | CC[C@H]1NC(=O)[C@@H]([C@@H]2OCCCC[C@H]2C)N(C)C(=O)[C@@H](C(C)C)N(C)C(=O)[C@@H](CC(C)C)N(C)C(=O)[C@@H](CC(C)C)N(C)C(=O)[C@H](C)NC(=O)[C@@H](C)NC(=O)[C@@H](CC(C)C)N(C)C(=O)[C@@H](C(C)C)NC(=O)[C@H](CC(C)C)N(C)C(=O)[C@@H](C)N(C)C1=O [Compound 17, [(2S)-2-(methylamino)-2-[(2R,3R)-3-methyloxepan-2-yl]acetic acid]^1 [(R)-methyl-Sar]^3 cyclosporin A] | 105 nM | 85 nM | 7740 nM | –
6 | CC[C@H]1NC(=O)[C@@H]([C@@H]2OCN(C)C[C@H]2C)N(C)C(=O)[C@@H](C(C)C)N(C)C(=O)[C@@H](CC(C)C)N(C)C(=O)[C@@H](CC(C)C)N(C)C(=O)[C@H](C)NC(=O)[C@@H](C)NC(=O)[C@@H](CC(C)C)N(C)C(=O)[C@@H](C(C)C)NC(=O)[C@H](CC(C)C)N(C)C(=O)CN(C)C1=O [Compound 23, [(2R)-2-[(5R,6R)-3,5-dimethyl-1,3-oxazinan-6-yl]-2-(methylamino)acetic acid]^1 cyclosporin A] | 754 nM | 280 nM | > 10000 nM | –
7 | [(2R)-2-[(5R,6R)-3,5-dimethyl-2-oxo-1,3-oxazinan-6-yl]-2-(methylamino)acetic acid]^1 cyclosporin A [Compound 21] | 304 nM | 42 nM | 8160 nM | –
